ChEMBL document CHEMBL1159353, “New stigmastane sterols from Ajuga salicifolia” (J Nat Prod, 2003)
≈ marks a conversion by molar mass, not a printed value. Calls of active or inactive are those of the source. The rule behind the calls is not given here.

Columns and labels:
[1] = test system: Jurkat; experiment: Cytotoxicity against human Jurkat cells at 20 ug/ml; type: functional, cell-based
[2] = test system: KB; experiment: Cytotoxicity against human KB cells; type: functional, cell-based

Row | SMILES | Activity [1] | IC50 [2]
1 | CC[C@H]1C[C@H]([C@@H](C)C2[C@@H](O)C[C@H]3C4=CC[C@H]5C[C@@H](O[C@@H]6O[C@H](CO)[C@@H](O)[C@H](O)[C@H]6O[C@@H]6O[C@H](CO)[C@@H](O)[C@H](O)[C@H]6O)CC[C@]5(C)[C@H]4CC[C@]23C)O[C@]1(C)CO[C@@H]1O[C@H](CO)[C@@H](O)[C@H](O)[C@H]1O[C@@H]1O[C@H](CO)[C@@H](O)[C@H](O)[C@H]1O (stereo partly specified) | inactive | –
2 | CC[C@H]1[C@H](O)[C@H]([C@@H](C)[C@@]2(O)[C@@H](O)C[C@H]3C4=CC[C@H]5C[C@@H](O[C@@H]6O[C@H](COC(C)=O)[C@@H](O)[C@H](O)[C@H]6O)CC[C@]5(C)[C@H]4CC[C@@]32C)O[C@]1(C)COC(C)=O | inactive | –
3 | CC[C@H]1[C@H](O)[C@H]([C@@H](CO)[C@@]2(O)[C@@H](O)C[C@H]3C4=CC[C@H]5C[C@@H](O)CC[C@]5(C)[C@H]4CC[C@@]32C)O[C@]1(C)CO [AJUGASALICIGENIN] | inactive | 1 µg/mL (≈ 1.97 µM)
4 | CC[C@H]1[C@H](O)[C@H]([C@@H](CO)[C@@]2(O)[C@@H](O)C[C@H]3C4=CC[C@H]5C[C@@H](O[C@@H]6O[C@H](CO)[C@@H](O)[C@H](O)[C@H]6O)CC[C@]5(C)[C@H]4CC[C@@]32C)O[C@]1(C)CO [AJUGASALICIOSIDE F] | inactive | 13 µg/mL (≈ 19.4 µM)
